Source: patent US20240116850A1, “COMPOSITIONS AND METHODS RELATED TO BICYCLO[2.2.1] HEPTANAMINE-CONTAINING COMPOUNDS” (The Broad Institute, Inc., priority 2020, published 2024)
“Also recorded” adds a separate entry of the source.

Assays:
[1] = Dynamic Vapor Sorption (DVS) hygroscopicity; type: physicochemical; conditions: for hygroscopicity classification: DVS; for DVS (matrix of results from solid form characterization): summary grade Good/Moderate/Poor
Experimental: Dynamic Vapor Sorption (DVS) was measured via a SMS (Surface Measurement Systems) DVS Intrinsic. The relative humidity at 25° C. were calibrated against the deliquescence point of LiCl, Mg(NO3)2 and KCl.

[2] = Physical and chemical stability on storage (LC-MS and XRPD); type: physicochemical; conditions: for decomposition or solid form change in stability assay / Stability (matrix of results from solid form characterization): 1 week stability assay; for Solid Form after storage (XRPD) / Stability: 25/60% RH; 40 C./75% RH; 1 week / Form change?: 1 week; for Stability: 25/60% RH; 40 C./75% RH; 1 week / Form change?: BRD4780 salt solid form, 25/60% RH and 40 C./75% RH; for Stability: 25/60% RH; 40 C./75% RH; 1 week: impurities estimated by LCMS by observation of the TIC; for Form change?: solid form change (XRPD); for Stability (matrix of results from solid form characterization): summary grade Good/Moderate/Poor
Experimental: To compare the physical/chemical stability of the salt candidates, approximate 10 mg of each solid sample was added to a 5-mL glass vial covered with Parafilm® with several pin-holes on it, and then stored under 25° C./60% RH and 40° C./75% RH. After one week storage, solids were taken out for LC-MS and XRPD test to evaluate physical and chemical stability.

[3] = TGA and DSC thermal characterization of salts; type: physicochemical; conditions: summary grade Good/Moderate/Poor
Experimental: TGA data were collected using a TA Discovery5500/Q5000 TGA from TA Instruments. DSC was performed using a TA Discovery2500/Q2000 DSC from TA Instruments.

[4] = Physical and chemical stability on storage (LC-MS and XRPD); type: physicochemical
[5] = Equilibrium solubility in water and bio-relevant media (SGF, FaSSIF, FeSSIF); conditions: for Solubility (matrix of results from solid form characterization): summary grade Good/Moderate/Poor; for solubility: thermodynamic from solid
[6] = physchem; conditions: thermodynamic from solid
[7] = Fasted State Simulated Intestinal Fluid (pH 6.5)
[8] = Fed State Simulated Intestinal Fluid (pH 5.0)
[9] = Simulated gastric fluid (pH 1.8)
[10] = water, HCl salt tested at 100 mg/mL, other salts at 50 mg/mL
[11] = water, H2O solubility (mM; salt)

DVS (% H2O uptake at 25 C./80% RH) ([1]; 80% RH) [%] | DVS (% H2O uptake at 25 C./95% RH) [1] [%] | hygroscopicity classification [1] | DVS (matrix of results from solid form characterization) [1] | Solid Form after storage (XRPD) ([2]; 25° C./60% RH) | Solid Form after storage (XRPD) ([2]; 40° C./75% RH) | Stability: 25/60% RH; 40 C./75% RH; 1 week [2] | Form change? [2] | Stability (matrix of results from solid form characterization) [2] | TGA/DSC (matrix of results from solid form characterization) [3] | FaSSIF solubility [5, 7] [mg/mL] | FeSSIF solubility [5, 8] [mg/mL] | SGF solubility [5, 9] [mg/mL] | pH ([5]; final solution in FaSSIF) | pH ([5]; final solution in FeSSIF) | pH ([5]; final solution in H2O) | pH ([5]; final solution in SGF) | Solubility (matrix of results from solid form characterization) [5] | H2O solubility (mM; salt) ([5]; water) [mM] | Structure (SMILES) | decomposition or solid form change in stability assay [2] | also measured
0.55 | 3.3 | slightly hygroscopic | Moderate | HCl salt Type A | HCl salt Type A | No significant impurities | No change | Good | Good | >71 | >75 | >77 | 6.0 | 4.8 | 4.5 | 1.8 | Good | >405.84 | CC(C)C1C2CCC(C2)C1N.Cl (racemic) [HCl salt Type A, rac-3-exo-isopropylbicyclo[2.2.1]heptan-2-endo-amine hydrochloride, reference compound] | did not display decomposition or solid form change | H2O absorption ([1]; 80% RH): 0.55 wt %; H2O absorption ([1]; 90% RH): 3.3 wt %; new peak on LC-MS chromatogram after storage ([4]; 60° C. for 24 h): a new peak was observed; Solid Form after storage (XRPD) ([4]; 60° C., 24 h): HCl salt Type A; H2O solubility (mg/mL; salt) [5, 10]: >77 mg/mL
0.02 | 0.07 | not hygroscopic | Good | Maleate Type A | Maleate Type A | No significant impurities | No change | Good | Good |  |  |  | 4.6 | 4.7 | 3.8 | 4.9 | Good |  | CC(C)[C@@H]1[C@H]2CC[C@H](C2)[C@H]1N.O=C(O)/C=C\C(=O)O [Maleate Type A] | did not display decomposition or solid form change | solubility ([5]; fasted state simulated intestinal fluid (FaSSIF), pH 6.5, fassif, FaSSIF solubility, Fasted State Simulated Intestinal Fluid (pH 6.5)): > 27 mg/mL; solubility ([5]; fed state simulated intestinal fluid (FeSSIF), pH 5, fessif, FeSSIF solubility, Fed State Simulated Intestinal Fluid (pH 5.0)): > 26 mg/mL; solubility ([5]; simulated gastric fluid (SGF), pH 1.8, simulated gastric fluid, SGF solubility, Simulated gastric fluid (pH 1.8)): > 28 mg/mL; solubility [5, 11]: > 92.8 mM; solubility ([5]; water, H2O solubility (mg/mL; salt), HCl salt tested at 100 mg/mL, other salts at 50 mg/mL): > 25 mg/mL
0.08 | 0.67 | not hygroscopic | Good | Succinate Type A + peaks | Succinate Type A | No significant impurities | New Peaks | Moderate | Good |  |  |  | 4.5 | 4.6 | 4.5 | 4.4 |  |  | CC(C)[C@@H]1[C@H]2CC[C@H](C2)[C@H]1N.O=C(O)CCC(=O)O [Succinate Type A] | new peaks observed | Solid Form after storage (XRPD) ([2]; 25° C./60% RH, listed as succinate Type A): new peaks were observed; solubility ([6]; pH 1.8, simulated gastric fluid, SGF solubility): > 28 mg/mL; solubility ([6]; pH 6.5, fassif, FaSSIF solubility): > 28 mg/mL; solubility [6, 11]: > 103 mM; solubility ([6]; water, H2O solubility (mg/mL; salt)): > 28 mg/mL

Structure (SMILES) | DVS (% H2O uptake at 25 C./80% RH) ([1]; 80% RH) [%] | DVS (% H2O uptake at 25 C./95% RH) [1] [%] | hygroscopicity classification [1] | DVS (matrix of results from solid form characterization) [1] | Solid Form after storage (XRPD) ([2]; 25° C./60% RH) | Solid Form after storage (XRPD) ([2]; 40° C./75% RH) | Stability: 25/60% RH; 40 C./75% RH; 1 week [2] | Form change? [2] | Stability (matrix of results from solid form characterization) [2] | TGA/DSC (matrix of results from solid form characterization) [3] | FaSSIF solubility [5, 7] [mg/mL] | FeSSIF solubility [5, 8] [mg/mL] | SGF solubility [5, 9] [mg/mL] | pH ([5]; final solution in FaSSIF) | pH ([5]; final solution in FeSSIF) | pH ([5]; final solution in H2O) | pH ([5]; final solution in SGF) | Solubility (matrix of results from solid form characterization) [5] | H2O solubility (mM; salt) ([5]; water) [mM] | decomposition or solid form change in stability assay [2] | also measured
CC(C)[C@@H]1[C@H]2CC[C@H](C2)[C@H]1N [L-malate Type C] | 0.18 | 0.30 | not hygroscopic | Good | L-malate Type C | partly converted to L-malate Type B; also recorded: L-malate Type B + C | No significant impurities | Type B observed | Poor | Poor | >30 | >32 | >33 | 6.4 | 5.2 | 7.1 | 5.3 | Good | >136.17 | form change observed | H2O solubility (mg/mL; salt) [5, 10]: >39 mg/mL
